One test deals with P. aeruginosa LpxC (Pseudomonas aeruginosa (strain ATCC 15692 / DSM 22644 / CIP 104116 / JCM 14847 / LMG 12228 / 1C / PRS 101 / PAO1), UniProt P47205). Nature of the test: P. aeruginosa LpxC Inhibition Assay. It is filed as biochemical. Conditions: 2 μM substrate, LC-MS/MS. An excerpt:
The P. aeruginosa LpxC protein is produced according to the general method of Hyland et al (Journal of Bacteriology 1997 179, 2029-2037: Cloning, expression and purification of UDP-3-O-acyl-GIcNAc deacetylase from Pseudomonas aeruginosa: a metalloamidase of the lipid A biosynthesis pathway). The LC-MS/MS method for quantitation of LpxC product was developed using an Agilent 1200 Capillary HPLC system coupled to an Applied Biosystems MDS Sciex 4000QTRAP mass spectrometer. Both instruments are controlled using the Applied Biosystems MDS Sciex Analyst software. LpxC reaction product (UDP-3-O—(R-3-hydroxyacyl)-glucosamine) was produced by hydrolysis of LpxC substrate catalyzed by P.a. LpxC and purified using reversed phase chromatography on a Phenomenex Luna C18(2) 4.6×50 mm column. An LpxC product calibration curve was generated to evaluate the sensitivity and dynamic range of the LC-MS/MS method. Briefly, compounds are pre-incubated with 1 nM P. aeruginosa LpxC for 30 min. at room temperature. Reactions are initiated by the addition of 2 μM UDP-3-O—(R-3-hydroxydecanoyl)-GIcNAc. Reactions are conducted in a 384-well plate with a total volume of 50 μL in each well containing 50 mM Sodium phosphate pH 7.5, 0.005% Trition X-100 for 20 min at room temperature. After quenching with 1.8% HOAc (5 μL of a 20% HOAc added to each well), reaction mixtures are analyzed using the LC-MS/MS method and peak areas are transformed into product concentration using a LpxC product calibration curve. Total activity (0% inhibition control) is obtained from reactions with no inhibitors and 100% inhibition control is the background using quenched samples before reaction starts. For IC50 determinations, peak areas are converted to percent inhibition in Microsoft Excel. Percent inhibition values are plotted vs. log compound concentration using XLfit. Data is fit to the four-parameter logistic equation using the non-linear regression algorithm in XLfit to return the IC50 and hill slope values.

For another test, the system named is P. aeruginosa PAO1. Briefly: Susceptibility Testing (MIC, broth microdilution). In kind it is cell-based, Pseudomonas aeruginosa. As to conditions: Pseudomonas aeruginosa, PAO1, 20 h, P. aeruginosa PAO1, broth microdilution, 20 hours; read-out: PAO1 MIC. How it is done:
Bacterial isolates were cultivated from −70° C. frozen stocks by two consecutive overnight passages at 35° C. in ambient air on 5% blood agar (Remel, Lenexa, Kans.). Quality control and P. aeruginosa ATCC 27853) is from the American Type Culture Collection (ATCC; Rockville, Md.) and PAO1 was received from Dr. K. Poole.
Minimal Inhibitory Concentrations (MICs) were determined by the broth microdilution method in accordance with Clinical and Laboratories Institute (CLSI) guidelines. In brief, fresh bacterial overnight cultures were resuspended in sterile saline, adjusted to a 0.5 McFarland turbidity standard and then diluted […] in cation adjusted Mueller-Hinton Broth II (MHB; Remel BBL) to yield a final inoculum of approximately 5×10^5 colony-forming units (CFU)/mL. Two-fold serial dilutions of compounds were prepared in 100% dimethyl sulfoxide (DMSO) at 100-fold the highest final assay concentration; the resulting dilution series of compounds were diluted 1:10 with sterile water. Ten μl of the drug dilution series in 10% DMSO was transferred to microtiter wells and 90 μl of bacterial suspension was inoculated into the wells. All inoculated microdilution trays were incubated in ambient air at […] for 20 hours. Following incubation, assay plates were read in a microtiter plate reader at 600 nm and visually inspected to confirm the MIC endpoint well with the OD value. The lowest concentration of the compound that prevented visible growth was recorded as the MIC. Performance of the assay was monitored by testing ciprofloxacin against laboratory quality control strains in accordance with guidelines of the CLSI.

The mark [1] stands for this setting: 1 nM P. aeruginosa LpxC, read-out: PA LpxC IC50.

Converted amounts (≈) assume the structure as drawn. Read-outs that look alike come from different tables or passages of the source.

`COc1ccc(-c2ccc(C3=NO[C@@H](C[C@](C)(C(=O)NO)S(C)(=O)=O)C3)cc2F)c(C)c1` [Compound 113, (R)-3-((R)-3-(2-fluoro-4′-methoxy-2′-methyl-[1,1′-biphenyl]-4-yl)-4,5-dihydroisoxazol-5-yl)-N-hydroxy-2-methyl-2-(methylsulfonyl)propanamide]: the IC50 – broadly, the point on the concentration scale where inhibition reaches its midpoint – on P. aeruginosa LpxC (setting [1]) is less than 0.5 nM. The MIC (as a rule, the smallest concentration in the dilution series that meets the test's criterion for growth inhibition) in the test with P. aeruginosa PAO1 came to 0.71 µg/mL (≈ 1.53 µM).
In the case of `CC#Cc1ccc(C2=NO[C@@H](C[C@](C)(C(=O)NO)S(C)(=O)=O)C2)c(F)c1` [Compound 123, (R)-3-((R)-3-(2-fluoro-4-(prop-1-yn-1-yl)phenyl)-4,5-dihydroisoxazol-5-yl)-N-hydroxy-2-methyl-2-(methylsulfonyl)propanamide], the IC50 at P. aeruginosa LpxC (setting [1]) was less than 0.5 nM. The MIC in the test on P. aeruginosa PAO1 stood at 0.25 µg/mL (≈ 0.654 µM).
The like results for `C/C=C/c1ccc(C2=NO[C@@H](C[C@](C)(C(=O)NO)S(C)(=O)=O)C2)cc1` [Compound 24, (R)—N-hydroxy-2-methyl-2-(methylsulfonyl)-3-((R)-3-(4-((E)-prop-1-en-1-yl)phenyl)-4,5-dihydroisoxazol-5-yl)propanamide] were, in that order, 0.8 nM and 0.5 µg/mL (≈ 1.36 µM).
The like results for `C[C@@](C[C@H]1CC(c2ccc(CCCCF)cc2)=NO1)(C(=O)NO)S(C)(=O)=O` [Compound 34, (R)-3-((R)-3-(4-(4-fluorobutyl)phenyl)-4,5-dihydroisoxazol-5-yl)-N-hydroxy-2-methyl-2-(methylsulfonyl) propanamide] were, in that order, 2 nM and 0.5 µg/mL (≈ 1.25 µM).
The like results for `C[C@@](C[C@H]1CC(c2ccc(-c3ccnc(C(F)(F)F)c3)cc2)=NO1)(C(=O)NO)S(C)(=O)=O` [Compound 70, (R)—N-hydroxy-2-methyl-2-(methylsulfonyl)-3-((R)-3-(4-(2-(trifluoromethyl)pyridin-4-yl)phenyl)-4,5-dihydroisoxazol-5-yl)] were, in that order, 2 nM and 8 µg/mL (≈ 17 µM).
Take `CC(CC1CC(c2ccc(C#CCCO)cc2)=NO1)(C(=O)NO)S(C)(=O)=O` (single isomer, unassigned) [Compound 10-B, N-hydroxy-3-(3-(4-(4-hydroxybut-1-yn-1-yl)phenyl)-4,5-dihydroisoxazol-5-yl)-2-methyl-2-(methylsulfonyl)propanamide]: the IC50 on P. aeruginosa LpxC (setting [1]) is less than 0.5 nM. In addition, the MIC in the test with P. aeruginosa PAO1 amounted to 1 µg/mL (≈ 2.54 µM).
In the case of `C[C@@](C[C@H]1CC(c2ccc(C#CCCF)cc2)=NO1)(C(=O)NO)S(C)(=O)=O` [Compound 22, (R)-3-((R)-3-(4-(4-fluorobut-1-yn-1-yl)phenyl)-4,5-dihydroisoxazol-5-yl)-N-hydroxy-2-methyl-2-(methylsulfonyl)propanamide], on P. aeruginosa LpxC (setting [1]), the IC50 was less than 0.5 nM. The MIC with P. aeruginosa PAO1 amounted to 0.5 µg/mL (≈ 1.26 µM).
The like results for `C[C@@H](O)Cc1ccc(-c2ccc(C3=NO[C@@H](C[C@](C)(C(=O)NO)S(C)(=O)=O)C3)cc2)c(F)c1` [Compound 89, (R)-3-((R)-3-(2′-fluoro-4′-((R)-2-hydroxypropyl)-[1,1′-biphenyl]-4-yl)-4,5-dihydroisoxazol-5-yl)-N-hydroxy-2-methyl-2-(methylsulfonyl) propanamide] were, in that order, less than 0.5 nM and 0.71 µg/mL (≈ 1.48 µM).
The like results for `C[C@@](C[C@H]1CC(c2ccc(-c3ccc(S(C)(=O)=O)cc3)cc2)=NO1)(C(=O)NO)S(C)(=O)=O` [Compound 58, (R)—N-hydroxy-2-methyl-2-(methylsulfonyl)-3-((R)-3-(4′-(methylsulfonyl)-[1,1-biphenyl]-4-yl)-4,5-dihydroisoxazol-5-yl)] were, in that order, less than 0.5 nM and 0.5 µg/mL (≈ 1.04 µM).
The like results for `C[C@@](C[C@H]1CC(c2ccc(-c3ccc(CC#N)cc3)c(F)c2)=NO1)(C(=O)NO)S(C)(=O)=O` [Compound 104, (R)-3-((R)-3-(4′-(cyanomethyl)-2-fluoro-[1,1′-biphenyl]-4-yl)-4,5-dihydroisoxazol-5-yl)-N-hydroxy-2-methyl-2-(methylsulfonyl)propanamide] were, in that order, 0.5 nM and 0.125 µg/mL (≈ 0.272 µM).
As to `C[C@@](C[C@H]1CC(c2ccc(-c3c(F)cncc3F)cc2)=NO1)(C(=O)NO)S(C)(=O)=O` [Compound 100], the IC50 at P. aeruginosa LpxC (setting [1]) is less than 0.5 nM. In addition, the MIC with P. aeruginosa PAO1 stood at 0.25 µg/mL (≈ 0.569 µM).
In the case of `C[C@H](O)c1ccc(-c2ccc(C3=NO[C@@H](C[C@](C)(C(=O)NO)S(C)(=O)=O)C3)cc2)cc1` [Compound 56, (R)—N-hydroxy-3-((R)-3-(4′-((S)-1-hydroxyethyl)-[1,1′-biphenyl]-4-yl)-4,5-dihydroisoxazol-5-yl)-2-methyl-2-(methylsulfonyl)], the IC50 at P. aeruginosa LpxC (setting [1]) came out at 1 nM. For the same compound, the MIC in the test on P. aeruginosa PAO1 was determined as 0.25 µg/mL (≈ 0.56 µM).
The like results for `CCC#Cc1ccc(C2=NO[C@@H](C[C@](C)(C(=O)NO)S(C)(=O)=O)C2)cc1` [Compound 62, (R)-3-((R)-3-(4-(but-1-yn-1-yl)phenyl)-4,5-dihydroisoxazol-5-yl)-N-hydroxy-2-methyl-2-(methylsulfonyl)propanamide] were, in that order, less than 0.5 nM and 0.33 µg/mL (≈ 0.872 µM).
The like results for `C[C@@](C[C@H]1CC(c2ccc(C#CC3CC(F)C3)cc2)=NO1)(C(=O)NO)S(C)(=O)=O` (stereo partly drawn) [Compound 54, (R)-3-((R)-3-(4-((3-fluorocyclobutyl)ethynyl)phenyl)-4,5-dihydroisoxazol-5-yl)-N-hydroxy-2-methyl-2-(methylsulfonyl) propanamide] were, in that order, 0.7 nM and 1 µg/mL (≈ 2.37 µM).
The like results for `C[C@@H](O)Cc1cc(F)c(-c2ccc(C3=NO[C@@H](C[C@](C)(C(=O)NO)S(C)(=O)=O)C3)cc2)c(F)c1` [Compound 88, (R)-3-((R)-3-(2′,6′-difluoro-4′-((R)-2-hydroxypropyl)-[1,1′-biphenyl]-4-yl)-4,5-dihydroisoxazol-5-yl)-N-hydroxy-2-methyl-2-(methylsulfonyl) propanamide] were, in that order, less than 0.5 nM and 0.25 µg/mL (≈ 0.503 µM).
For `Cc1cnccc1-c1ccc(C2=NO[C@@H](C[C@](C)(C(=O)NO)S(C)(=O)=O)C2)cc1` [Compound 85, (R)-3-((R)-3-(4-(3-methylpyridin-4-yl)phenyl)-4,5-dihydroisoxazol-5-yl)-N-hydroxy-2-methyl-2-(methylsulfonyl)propanamide], the IC50 on P. aeruginosa LpxC (setting [1]) was less than 0.5 nM. For the same compound, the MIC in the test on P. aeruginosa PAO1 came to 0.5 µg/mL (≈ 1.2 µM).
Turning to `CC#Cc1ccc(C2=NOC(CC(C)(C(=O)NO)S(C)(=O)=O)C2)c(F)c1` (single isomer, unassigned) [Compound 16-B, 3-(3-(2-fluoro-4-(prop-1-yn-1-yl)phenyl)-4,5-dihydroisoxazol-5-yl)-N-hydroxy-2-methyl-2-(methylsulfonyl)propanamide], the IC50 on P. aeruginosa LpxC (setting [1]) is 0.6 nM. The MIC in the test on P. aeruginosa PAO1 was 1 µg/mL (≈ 2.61 µM).
For the compound `Cn1ccc(-c2ccc(C3=NO[C@@H](C[C@](C)(C(=O)NO)S(C)(=O)=O)C3)cc2F)cc1=O` [Compound 108, (R)-3-((R)-3-(3-fluoro-4-(1-methyl-2-oxo-1,2-dihydropyridin-4-yl)phenyl)-4,5-dihydroisoxazol-5-yl)-N-hydroxy-2-methyl-2-(methylsulfonyl)propanamide], inhibition against P. aeruginosa LpxC (PA LpxC IC50, 1 nM P. aeruginosa LpxC) was half-maximal at 2 nM (IC50). In the test with P. aeruginosa PAO1, the MIC was found to be 8 µg/mL (≈ 17.7 µM).
Turning to `C[C@@](C[C@H]1CC(c2ccc(-c3ccncc3F)cc2)=NO1)(C(=O)NO)S(C)(=O)=O` [Compound 42, (R)-3-((R)-3-(4-(3-fluoropyridin-4-yl)phenyl)-4,5-dihydroisoxazol-5-yl)-N-hydroxy-2-methyl-2-(methylsulfonyl)propanamide], on P. aeruginosa LpxC (setting [1]), the IC50 came out at 0.5 nM. Also, the MIC in the test with P. aeruginosa PAO1 turned out to be 0.25 µg/mL (≈ 0.593 µM).

Values taken from patent US9718792B2, “Isoxazoline hydroxamic acid derivatives as LpxC inhibitors” (priority 2014, dated 2017).
